{"source": "paper PMC10176470", "about": "“Engaging a Non-catalytic Cysteine Residue Drives Potent and Selective Inhibition of Caspase-6” (Journal of the American Chemical Society, 2023)", "type_in_all_cases": "cell-based", "key": {"[1]": {"target": "proteins of HEK293T cells transiently overexpressing caspase-6 (Homo sapiens, UniProt O00541)", "settings": "protein PES1 (O00541); exp_ref Probe; analysis C6"}, "[2]": {"target": "proteins of HEK293T cells transiently overexpressing caspase-6 (Homo sapiens, UniProt P02786)", "sequence (P02786 whole entry)": "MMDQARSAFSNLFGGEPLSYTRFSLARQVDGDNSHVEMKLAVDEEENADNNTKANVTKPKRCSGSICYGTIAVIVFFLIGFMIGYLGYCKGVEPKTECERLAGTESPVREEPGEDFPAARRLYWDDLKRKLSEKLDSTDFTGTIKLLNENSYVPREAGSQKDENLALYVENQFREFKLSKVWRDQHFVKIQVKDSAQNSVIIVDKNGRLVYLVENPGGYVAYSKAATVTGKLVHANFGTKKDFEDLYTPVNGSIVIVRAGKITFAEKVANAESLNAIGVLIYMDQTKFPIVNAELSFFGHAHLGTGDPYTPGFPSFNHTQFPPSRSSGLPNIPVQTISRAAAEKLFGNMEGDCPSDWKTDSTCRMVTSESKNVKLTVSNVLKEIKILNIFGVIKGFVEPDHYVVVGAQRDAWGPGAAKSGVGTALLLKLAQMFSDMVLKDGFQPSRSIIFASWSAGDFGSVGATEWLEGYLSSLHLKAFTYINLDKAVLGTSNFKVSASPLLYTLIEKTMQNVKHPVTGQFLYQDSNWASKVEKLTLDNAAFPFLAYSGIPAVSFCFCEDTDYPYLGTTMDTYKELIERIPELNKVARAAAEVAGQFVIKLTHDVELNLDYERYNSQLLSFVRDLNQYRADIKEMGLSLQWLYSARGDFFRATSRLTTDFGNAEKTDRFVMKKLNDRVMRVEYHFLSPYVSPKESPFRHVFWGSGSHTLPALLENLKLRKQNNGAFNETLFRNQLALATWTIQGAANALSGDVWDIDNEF", "settings": "protein TFRC (P02786)"}, "[3]": {"target": "proteins of HEK293T cells transiently overexpressing caspase-6 (Homo sapiens, UniProt P08195)", "settings": "protein SLC3A2 (P08195); exp_ref Probe; analysis C6"}, "[4]": {"target": "proteins of HEK293T cells transiently overexpressing caspase-6 (Homo sapiens, UniProt P21796)", "sequence (P21796 whole entry)": "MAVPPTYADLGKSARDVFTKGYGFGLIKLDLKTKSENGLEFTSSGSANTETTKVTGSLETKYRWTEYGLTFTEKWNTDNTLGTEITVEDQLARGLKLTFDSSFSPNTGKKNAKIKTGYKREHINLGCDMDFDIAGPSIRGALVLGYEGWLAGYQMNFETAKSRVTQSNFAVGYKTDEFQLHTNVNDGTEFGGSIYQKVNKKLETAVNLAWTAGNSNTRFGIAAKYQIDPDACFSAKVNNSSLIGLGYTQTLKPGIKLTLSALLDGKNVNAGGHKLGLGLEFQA", "settings": "Probe; protein VDAC1 P21796"}, "[5]": {"target": "proteins of HEK293T cells transiently overexpressing caspase-6 (Homo sapiens, UniProt P34932)", "sequence (P34932 whole entry)": "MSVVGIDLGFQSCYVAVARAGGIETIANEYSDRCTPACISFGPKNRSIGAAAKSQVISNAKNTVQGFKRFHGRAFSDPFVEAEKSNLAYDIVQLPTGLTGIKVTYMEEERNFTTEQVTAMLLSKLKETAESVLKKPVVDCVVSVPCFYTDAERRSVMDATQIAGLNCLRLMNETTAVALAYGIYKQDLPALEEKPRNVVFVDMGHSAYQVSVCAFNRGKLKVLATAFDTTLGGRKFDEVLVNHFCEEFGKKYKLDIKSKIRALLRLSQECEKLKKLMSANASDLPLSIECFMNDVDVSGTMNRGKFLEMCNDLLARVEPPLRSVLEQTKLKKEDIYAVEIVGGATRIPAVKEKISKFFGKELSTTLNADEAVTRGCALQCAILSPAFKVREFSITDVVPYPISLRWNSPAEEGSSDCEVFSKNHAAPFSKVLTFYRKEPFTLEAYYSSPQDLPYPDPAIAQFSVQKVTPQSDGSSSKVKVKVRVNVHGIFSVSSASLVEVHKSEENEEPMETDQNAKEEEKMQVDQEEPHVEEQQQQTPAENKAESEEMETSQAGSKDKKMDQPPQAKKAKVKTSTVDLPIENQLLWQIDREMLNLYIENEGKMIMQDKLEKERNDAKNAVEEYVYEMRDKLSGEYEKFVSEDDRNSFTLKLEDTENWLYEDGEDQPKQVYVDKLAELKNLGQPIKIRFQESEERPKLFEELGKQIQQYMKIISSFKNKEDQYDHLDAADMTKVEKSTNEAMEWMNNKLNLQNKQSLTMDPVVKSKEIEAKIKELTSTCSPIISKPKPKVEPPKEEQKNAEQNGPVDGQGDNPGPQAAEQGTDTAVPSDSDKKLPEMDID", "settings": "Probe; protein HSPA4 P34932"}, "[6]": {"target": "proteins of HEK293T cells transiently overexpressing caspase-6 (Homo sapiens, UniProt P36578)", "settings": "exp_ref Probe; protein RPL4 (P36578); analysis C6"}, "[7]": {"target": "proteins of HEK293T cells transiently overexpressing caspase-6 (Homo sapiens, UniProt P46779)", "settings": "exp_ref Probe; protein RPL28 (P46779); analysis C6"}, "[8]": {"target": "proteins of HEK293T cells transiently overexpressing caspase-6 (Homo sapiens, UniProt Q00839)", "sequence (Q00839 whole entry)": "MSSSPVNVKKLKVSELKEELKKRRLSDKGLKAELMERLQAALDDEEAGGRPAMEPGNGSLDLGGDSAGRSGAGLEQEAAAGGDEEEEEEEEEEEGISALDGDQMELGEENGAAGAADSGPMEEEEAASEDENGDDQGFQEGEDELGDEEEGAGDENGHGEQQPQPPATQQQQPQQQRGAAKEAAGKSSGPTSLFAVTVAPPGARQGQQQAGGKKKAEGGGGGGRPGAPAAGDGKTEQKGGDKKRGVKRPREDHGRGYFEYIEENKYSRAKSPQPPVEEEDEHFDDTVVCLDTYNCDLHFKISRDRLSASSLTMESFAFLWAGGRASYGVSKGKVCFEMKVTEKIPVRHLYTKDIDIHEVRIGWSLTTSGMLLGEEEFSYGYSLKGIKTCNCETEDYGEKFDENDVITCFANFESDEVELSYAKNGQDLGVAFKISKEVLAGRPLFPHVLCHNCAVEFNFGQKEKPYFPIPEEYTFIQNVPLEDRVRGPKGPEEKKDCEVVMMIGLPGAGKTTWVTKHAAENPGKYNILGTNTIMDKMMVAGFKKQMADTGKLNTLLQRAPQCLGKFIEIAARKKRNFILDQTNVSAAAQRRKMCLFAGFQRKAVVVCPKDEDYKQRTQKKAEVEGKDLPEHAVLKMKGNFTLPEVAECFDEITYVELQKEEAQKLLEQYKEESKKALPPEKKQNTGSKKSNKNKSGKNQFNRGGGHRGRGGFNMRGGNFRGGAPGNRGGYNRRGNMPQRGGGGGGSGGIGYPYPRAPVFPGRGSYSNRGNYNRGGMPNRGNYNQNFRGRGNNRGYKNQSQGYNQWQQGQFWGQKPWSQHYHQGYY", "settings": "protein HNRNPU (Q00839)"}, "[9]": {"target": "proteins of HEK293T cells transiently overexpressing caspase-6 (Homo sapiens, UniProt Q02543)", "settings": "exp_ref Probe; protein RPL18A (Q02543); analysis C6"}, "[10]": {"target": "proteins of HEK293T cells transiently overexpressing caspase-6 (Homo sapiens, UniProt Q14157)", "sequence (Q14157 whole entry)": "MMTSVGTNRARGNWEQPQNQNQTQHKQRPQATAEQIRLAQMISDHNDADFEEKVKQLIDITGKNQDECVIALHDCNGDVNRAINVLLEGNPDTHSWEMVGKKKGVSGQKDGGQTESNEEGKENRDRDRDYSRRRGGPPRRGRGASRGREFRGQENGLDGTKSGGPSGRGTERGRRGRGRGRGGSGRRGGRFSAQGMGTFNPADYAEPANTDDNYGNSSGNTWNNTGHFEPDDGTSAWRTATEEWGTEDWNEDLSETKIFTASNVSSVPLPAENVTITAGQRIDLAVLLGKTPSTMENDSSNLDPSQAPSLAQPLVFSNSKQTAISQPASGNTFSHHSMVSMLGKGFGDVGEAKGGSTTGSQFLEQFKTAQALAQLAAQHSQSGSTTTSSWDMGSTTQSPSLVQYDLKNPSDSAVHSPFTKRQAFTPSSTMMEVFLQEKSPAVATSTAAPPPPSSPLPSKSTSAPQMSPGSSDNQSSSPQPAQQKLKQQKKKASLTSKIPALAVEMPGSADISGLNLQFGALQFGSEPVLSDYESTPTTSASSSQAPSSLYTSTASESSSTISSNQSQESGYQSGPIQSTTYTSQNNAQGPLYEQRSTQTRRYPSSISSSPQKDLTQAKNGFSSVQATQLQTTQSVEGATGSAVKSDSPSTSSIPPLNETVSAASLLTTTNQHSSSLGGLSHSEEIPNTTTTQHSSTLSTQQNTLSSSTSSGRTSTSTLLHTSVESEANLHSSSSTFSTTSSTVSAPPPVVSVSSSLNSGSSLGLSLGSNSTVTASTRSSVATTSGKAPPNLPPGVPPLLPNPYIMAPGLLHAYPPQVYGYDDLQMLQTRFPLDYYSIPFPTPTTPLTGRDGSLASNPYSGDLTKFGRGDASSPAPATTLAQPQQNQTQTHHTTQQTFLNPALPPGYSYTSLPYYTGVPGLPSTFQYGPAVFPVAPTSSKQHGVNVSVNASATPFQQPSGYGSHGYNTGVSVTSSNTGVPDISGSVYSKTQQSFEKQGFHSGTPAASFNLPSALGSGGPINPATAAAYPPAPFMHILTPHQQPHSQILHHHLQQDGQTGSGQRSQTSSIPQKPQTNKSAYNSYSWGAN", "settings": "Probe; protein UBAP2L Q14157"}, "[11]": {"target": "proteins of HEK293T cells transiently overexpressing caspase-6 (Homo sapiens, UniProt Q15233)", "settings": "exp_ref Probe; protein NONO (Q15233); analysis C6"}, "[12]": {"target": "proteins of HEK293T cells transiently overexpressing caspase-6 (Homo sapiens, UniProt Q96K37)", "settings": "protein SLC35E1 (Q96K37); exp_ref Probe; analysis C6"}, "[13]": {"target": "T1, proteins of HEK293T cells transiently overexpressing caspase-6 (Homo sapiens, UniProt Q9BQG0)", "T1 sequence (Q9BQG0 1-1328)": "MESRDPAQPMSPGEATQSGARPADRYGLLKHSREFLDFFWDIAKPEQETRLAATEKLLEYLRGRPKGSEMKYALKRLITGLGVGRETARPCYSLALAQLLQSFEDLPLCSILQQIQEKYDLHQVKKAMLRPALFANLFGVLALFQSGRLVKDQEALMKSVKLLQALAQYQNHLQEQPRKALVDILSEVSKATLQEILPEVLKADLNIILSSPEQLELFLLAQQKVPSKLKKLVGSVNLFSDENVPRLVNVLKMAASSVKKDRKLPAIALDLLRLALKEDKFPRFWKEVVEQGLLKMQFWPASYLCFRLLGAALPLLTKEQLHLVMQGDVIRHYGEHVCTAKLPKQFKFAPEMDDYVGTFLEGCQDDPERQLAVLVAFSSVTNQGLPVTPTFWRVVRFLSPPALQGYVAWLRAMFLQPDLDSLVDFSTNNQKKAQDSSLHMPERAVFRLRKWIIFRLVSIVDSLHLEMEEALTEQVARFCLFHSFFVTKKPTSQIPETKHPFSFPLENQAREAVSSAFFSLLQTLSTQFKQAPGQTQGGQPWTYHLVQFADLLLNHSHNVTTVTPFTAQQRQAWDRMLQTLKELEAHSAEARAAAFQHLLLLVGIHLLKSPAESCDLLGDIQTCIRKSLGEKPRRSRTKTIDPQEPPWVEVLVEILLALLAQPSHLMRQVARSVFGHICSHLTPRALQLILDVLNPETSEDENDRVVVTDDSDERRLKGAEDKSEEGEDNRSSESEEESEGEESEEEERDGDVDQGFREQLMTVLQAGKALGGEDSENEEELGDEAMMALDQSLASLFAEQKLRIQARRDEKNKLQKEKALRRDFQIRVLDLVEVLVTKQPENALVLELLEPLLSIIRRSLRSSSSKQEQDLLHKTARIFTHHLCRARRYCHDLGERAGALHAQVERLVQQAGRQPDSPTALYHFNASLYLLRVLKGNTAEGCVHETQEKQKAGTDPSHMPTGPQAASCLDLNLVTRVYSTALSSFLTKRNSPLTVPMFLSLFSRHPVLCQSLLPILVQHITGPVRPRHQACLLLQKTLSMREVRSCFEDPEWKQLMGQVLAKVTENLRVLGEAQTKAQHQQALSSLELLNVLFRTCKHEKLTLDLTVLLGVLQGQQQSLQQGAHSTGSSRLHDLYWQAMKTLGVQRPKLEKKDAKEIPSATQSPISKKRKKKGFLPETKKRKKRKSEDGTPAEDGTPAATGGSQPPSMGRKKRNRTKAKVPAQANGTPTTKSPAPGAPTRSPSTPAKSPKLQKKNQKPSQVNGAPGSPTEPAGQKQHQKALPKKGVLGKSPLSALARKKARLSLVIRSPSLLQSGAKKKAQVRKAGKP", "settings": "protein MYBBP1A (Q9BQG0)"}, "[14]": {"target": "proteins of HEK293T cells transiently overexpressing caspase-6 (Homo sapiens, UniProt Q9NZI8)", "settings": "Probe; protein IGF2BP1 Q9NZI8"}, "[15]": {"target": "proteins of HEK293T cells transiently overexpressing caspase-6 (Homo sapiens, UniProt Q9UQE7)", "sequence (Q9UQE7 whole entry)": "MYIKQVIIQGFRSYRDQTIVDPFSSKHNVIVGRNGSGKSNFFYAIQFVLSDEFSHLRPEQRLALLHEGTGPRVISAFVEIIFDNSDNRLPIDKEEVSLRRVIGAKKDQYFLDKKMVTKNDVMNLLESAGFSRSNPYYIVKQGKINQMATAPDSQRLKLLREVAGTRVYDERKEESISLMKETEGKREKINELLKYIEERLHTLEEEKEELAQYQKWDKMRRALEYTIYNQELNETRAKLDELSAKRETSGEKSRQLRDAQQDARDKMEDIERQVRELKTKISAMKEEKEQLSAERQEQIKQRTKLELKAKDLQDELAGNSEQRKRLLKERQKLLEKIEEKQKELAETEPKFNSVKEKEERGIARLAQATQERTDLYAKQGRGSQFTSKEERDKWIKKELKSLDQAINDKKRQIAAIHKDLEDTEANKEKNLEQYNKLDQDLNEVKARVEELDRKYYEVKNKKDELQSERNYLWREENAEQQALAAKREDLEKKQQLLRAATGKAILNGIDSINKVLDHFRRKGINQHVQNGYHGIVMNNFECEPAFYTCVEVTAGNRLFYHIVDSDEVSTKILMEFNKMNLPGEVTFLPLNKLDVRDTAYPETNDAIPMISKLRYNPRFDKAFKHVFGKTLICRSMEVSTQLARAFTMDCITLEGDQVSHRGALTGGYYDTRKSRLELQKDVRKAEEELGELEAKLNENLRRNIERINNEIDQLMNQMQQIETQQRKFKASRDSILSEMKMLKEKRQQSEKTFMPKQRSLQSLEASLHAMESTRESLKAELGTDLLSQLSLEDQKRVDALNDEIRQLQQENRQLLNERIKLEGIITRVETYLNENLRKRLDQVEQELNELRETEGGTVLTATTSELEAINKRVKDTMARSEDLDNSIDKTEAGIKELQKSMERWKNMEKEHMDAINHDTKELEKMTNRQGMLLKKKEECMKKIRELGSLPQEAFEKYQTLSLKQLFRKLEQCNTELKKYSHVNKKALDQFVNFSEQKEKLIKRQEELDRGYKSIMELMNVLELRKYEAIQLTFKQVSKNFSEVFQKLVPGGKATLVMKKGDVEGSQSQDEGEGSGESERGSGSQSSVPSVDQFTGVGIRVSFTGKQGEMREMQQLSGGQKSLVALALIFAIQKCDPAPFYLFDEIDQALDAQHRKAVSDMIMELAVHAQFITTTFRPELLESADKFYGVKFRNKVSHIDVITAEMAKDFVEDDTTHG", "settings": "protein SMC3 (Q9UQE7), analysis C6"}}}
{"compound": "C#CCOc1ccc([C@@H]2C[C@@H](C(=O)Nc3ccc(OC(F)(F)F)cc3)CN(S(=O)(=O)C=C)C2)cc1", "note": "(relative stereo) [13-t]", "values": [{"measurement": "enrich.exp.med", "setting": "[1]", "result": 1.47}, {"measurement": "enrich.exp.med", "setting": "[2]; exp_ref Probe, analysis C6", "result": 0.8901}, {"measurement": "enrich.exp.med.lin", "setting": "[2]", "result": 1.853}, {"measurement": "enrich.exp.med.log2", "setting": "[2]", "result": 0.8901}, {"measurement": "enrich.exp.med", "setting": "[3]", "result": 1.379}, {"measurement": "enrich.exp.med", "setting": "[4]", "result": -1.18}, {"measurement": "enrich.exp.med", "setting": "[5]", "result": -1.079}, {"measurement": "enrich.exp.med", "setting": "[6]", "result": 0.4261}, {"measurement": "enrich.exp.med", "setting": "[7]", "result": -0.3003}, {"measurement": "enrich.exp.med", "setting": "[8]; exp_ref Probe, analysis C6", "result": 0.5889}, {"measurement": "enrich.exp.med.lin", "setting": "[8]", "result": 1.5041}, {"measurement": "enrich.exp.med.log2", "setting": "[8]", "result": 0.5889}, {"measurement": "enrich.exp.med", "setting": "[9]", "result": -0.1551}, {"measurement": "enrich.exp.med", "setting": "[10]", "result": -0.84}, {"measurement": "enrich.exp.med", "setting": "[11]", "result": 0.7906}, {"measurement": "enrich.exp.med", "setting": "[12]", "result": 1.71}, {"measurement": "enrich.exp.med", "setting": "[13]; exp_ref Probe, analysis C6", "result": 1.154}, {"measurement": "enrich.exp.med.lin", "setting": "[13]", "result": 2.225}, {"measurement": "enrich.exp.med.log2", "setting": "[13]", "result": 1.154}, {"measurement": "enrich.exp.med", "setting": "[14]", "result": -0.7898}, {"measurement": "enrich.exp.med.lin", "setting": "[15]; Expt Probe", "result": 14.5893}, {"measurement": "enrich.exp.med.log2", "setting": "[15]; Expt Probe", "result": 3.867}, {"measurement": "enrich.exp.med", "setting": "[15]; exp_ref Probe", "result": 3.867}]}
